Patent US11389456B2, “Compounds and methods for treating oxalate-related diseases” (OxaluRx, Inc., priority 2018, dated 2022)
≈ marks a conversion by molar mass, not a printed value.

Tests used:
[1] = target: recombinant full-length human hydroxyacid oxidase 1 (HAO1), the equivalent of hGOX (Homo sapiens (Human), UniProt Q9UJM8); assay: In-vitro human glycolate oxidase (hGOX) assay (Amplex red/HRP fluorescence); assay type: biochemical
Description: Biological Activity Assay: In-Vitro Human Glycolate Oxidase (hGOX) Assay
The in-vitro glycolate oxidase assay was performed using recombinant full-length human hydroxyacid oxidase 1 (HAO1), the equivalent of hGOX. […] Purified HAO1 was dissolved in assay buffer consisting of 10 mM NaCl, 110 mM KCl, 2 mM MgCl2, 50 mM HEPES (pH 7.4) and 0.01% Triton™ X-100.

[2] = Solubility in phosphate buffered saline (PBS), pH 7.4; assay type: physicochemical; conditions: phosphate buffer (PBS), aqueous buffer, kinetic from dmso stock; phosphate buffered saline pH 7.4, 1% DMSO, 1 hour shaking at room temperature
Description: (§1) For testing compound solubility in phosphate buffered saline (PBS), compound stock solutions were prepared at 10 mM in 100% DMSO. For testing in aqueous solution, the phosphate buffer was replaced with deionized, distilled water. Eleven grams Na2HPO4 (FW: 141.96 g/mol) and 3.5 g NaH2PO4.2H2O (FW: 156.03 g/mol) was added to 1 L Milli-Q water and adjusted to a pH to 7.4 with phosphoric acid or sodium hydroxide. For incubation, media were preheated to 37° C. Eight μL aliquots of reference and test compound stock solutions (10 mM) were added into 792 μL of 100 mM phosphate buffer (pH 7.4). The final DMSO concentration was 1%. Sample tubes were shaken for 1 hour at 1000 rpm at room temperature.
(§2) The calibration curve was prepared with 300-μM spiking solution (SS) in MeOH:acetonitrile (4:1). Six μL of 10 mM compound was added in 194 μL MeOH/acetonitrile (4:1). Samples were centrifuged for 10 minutes at 12,000 rpm to precipitate undissolved particles. Supernatants were transferred to a new tube or plate and dilute 10-fold and 100-fold with 100 mM buffer. Samples were prepared for LC-MS/MS analysis by adding 5 μL each sample (undiluted, 10-fold diluted, and 100-fold diluted) and 5 μL of standard curve samples to 95 μL of acetonitrile (containing internal standard).

[3] = Solubility in aqueous solution (deionized, distilled water); assay type: physicochemical; conditions: kinetic from dmso stock, 1% DMSO, read-out: Aqueous Solubility H2O
Description: as §1, §2

[4] = Metabolic stability in human liver microsomal preparation; assay type: in vitro ADME; conditions: pH 7.4, human liver microsomes, NADPH, 37° C.; for half-life at 1 μM: 0-45 min, read-out: Metabolic Stability t1/2
Description: For evaluating the metabolic stability in human liver microsomal preparation, three buffers were prepared. Buffer A had 1.0 L of 0.1 M monobasic potassium phosphate buffer containing 1.0 mM EDTA. Buffer B had 1.0 L of 0.1 M dibasic potassium phosphate buffer containing 1.0 mM EDTA. Buffer C had 0.1 M potassium phosphate buffer, 1.0 mM EDTA, adjusted to a pH 7.4 via titrating 700 mL buffer B with buffer A. Reference compound (ketanserin) and test compounds spiking solutions (500 μM) were prepared by adding 10 μL of 10 mM DMSO stock compound solution into 190 μL acetonitrile. A volume of 1.5 μL 500 μM spiking solution and 18.75 μL 20 mg/mL human liver microsomes were added into 479.75 μL of Buffer C on ice. A stock solution of 6 mM NADPH was prepared by dissolving NADPH into Buffer C.
Wells on an assay plate were iced and filled with 30 μL 1.5-μM spiking solution containing 0.75 mg/mL microsomes solution and designated for different timepoints (0-, 5-, 15-, 30-, 45-min). For the 0-min timepoint, 135 μL acetonitrile containing internal standard were added followed by 15 μL of NADPH stock solution (6 mM). All other plates were preincubated at 37° C. for 5 minutes and 15 μL NADPH stock solution (6 mM) were added to the plates to start the reaction. At 5-min, 15-min, 30-min, and 45-min, 135 μL acetonitrile containing internal standard were added to the wells of corresponding plates, respectively, to stop the reaction. After quenching, the plates were shaken on the vibrator (IKA, MTS 2/4) for 10 min at 600 rpm and then centrifuged at 5594×g for 15 minutes (Thermo Multifuge×3R). Fifty μL supernatant from each well were transported into a 96-well sample plate containing 50 μL of ultra-pure water (Millipore, ZMQS50F01) for LC/MS analysis.

[5] = Stability in human plasma; assay type: in vitro ADME; conditions: read-out: Plasma Stability T1/2
Description: Stability in Human Plasma.
Stock compounds were prepared for testing the stability in human plasma. First, 0.05 M sodium phosphate and 0.07 M NaCl buffer, pH 7.4, were pre-heated. In deionized water, 14.505 g/L Na2HPO 12H2O, 1.483 g/L NaH2PO4.2H2O and 4.095 g/L NaCl were dissolved. The basic solution was titrated with the phosphoric acid to pH 7.40. Frozen plasma was quickly thawed at 37° C. The plasma was centrifuged at 3,000 rpm for 8 minutes to remove clots, then pipetted and pooled as the plasma stock for the experiment. Only plasma within the range of pH 7.4 to pH 8 was used. If higher than pH 8, the plasma was discarded. The initial pH of the plasma was not adjusted to pH 7.4 with acid or by bubbling with carbon dioxide. By using a 5% carbon dioxide incubator and PBS buffer, a pH of 7.4 will be reached after the 4-hour equilibrium dialysis time. Plasma was iced until use.
Spiking solution A with 0.5 mM testing compounds was prepared by adding 10 μL of 10 mM test compounds stock solution to 190 μL DMSO. Spiking solution B with 0.02 mM testing compound was prepared by adding 40 μL of spiking solution A to 960 μL of […] sodium phosphate buffer with 0.5% BSA. The plasma and spiking solution B were prewarmed at 37° C. for 5 minutes. Ten μL of pre-warmed spiking solution B was added into the wells designated for all the time points (5, 15, 30, 45, 60 minutes). For the 0-minute timepoint, 400 μL acetonitrile containing internal standard were added to the wells of 0-minute plate and then 90 μL plasma were added. For the other timepoints, 90 μL of pre-warmed plasma were added into the wells (0, 5, 15, 30, 45, 60 minutes) and the timing was started. At 5, 15, 30, 45, 60 minutes, 400 μL acetonitrile containing internal standard were added to the wells of corresponding plates, respectively, to stop the reaction. After quenching, the plates were shaken on a vibrator (IKA, MTS 2/4) for 10 minutes at 600 rpm and then centrifuged at 5594×g for 15 minutes (Thermo Multifuge×3R). Fifty μL of supernatant was transferred from each well into a 96-well sample plate containing 50 μL ultra-pure water (Millipore, ZMQS50F01) for LC/MS analysis.

[6] = Protein binding (plasma equilibrium dialysis); assay type: in vitro ADME; conditions: 5 hours at 37° C.; for fraction unbound at 5 h, 1 μM: read-out: Protein Binding Fraction Bound (converted)
Description: For testing protein binding of stock compounds solubilized in DMSO, spiking solutions of test and reference compounds were prepared. Solution A (0.5 mM) was prepared by adding 10 μL of 10 mM stock solution into 190 μL of DMSO. Solution B (0.02 mM) was prepared by adding 8 μL of Solution A into 192 μL of 0.05 M sodium phosphate buffer. The final DMSO concentration in Solution B was 4%.
To prepare test and reference compounds in plasma, a 96-well plate with 380 μL aliquots of plasma in the wells designed for plasma and buffer, respectively. Twenty μL of Solution B (0.02 mM of test and reference compounds) were spiked into the pre-loaded plasma in the 96-well plate. The final test concentration is 1 μM containing 0.2% DMSO.
For dialysis sample loading a plasma again buffer system was prepared by applying aliquots of 100 μL of blank dialysis buffer to the receiver side of dialysis chambers and then applying aliquots of 100 μL of the plasma spiked with test and reference compounds to the donor side of the dialysis chamber. A 25-μL aliquot of the plasma spiked with test and reference compounds was added into a 96-well sample preparation plate as T″0″ plasma samples. Aliquots were mixed with the same volume of blank buffer (50:50, volume:volume). Samples were quenched with 200 μL of acetonitrile containing internal standard. The dialysis block was covered and a shaken at 60 rpm for 5 hours at 37° C.
After a 5-hour incubation, dialyzed samples were prepared from 25-μL aliquots from both the donor and receiver sides of the dialysis apparatus into new sample preparation plates. The aliquots were mixed with same volume of opposite matrixes. The samples were quenched with 200 μL acetonitrile containing internal standard. All 0-hour and 5-hour samples were vortexed at 600 rpm for 10 min followed by centrifugation at 5594×g for 15 minutes (Thermo Multifuge×3R). Fifty μL of the supernatants were transferred to anew 96-well plate and mixed with 50 μL Milli-Q water. The sample plate was covered and frozen at −20° C. until LC/MS/MS analysis.

recombinant full-length human hydroxyacid oxidase 1 (HAO1), the equivalent of hGOX, sequence (Q9UJM8 whole entry): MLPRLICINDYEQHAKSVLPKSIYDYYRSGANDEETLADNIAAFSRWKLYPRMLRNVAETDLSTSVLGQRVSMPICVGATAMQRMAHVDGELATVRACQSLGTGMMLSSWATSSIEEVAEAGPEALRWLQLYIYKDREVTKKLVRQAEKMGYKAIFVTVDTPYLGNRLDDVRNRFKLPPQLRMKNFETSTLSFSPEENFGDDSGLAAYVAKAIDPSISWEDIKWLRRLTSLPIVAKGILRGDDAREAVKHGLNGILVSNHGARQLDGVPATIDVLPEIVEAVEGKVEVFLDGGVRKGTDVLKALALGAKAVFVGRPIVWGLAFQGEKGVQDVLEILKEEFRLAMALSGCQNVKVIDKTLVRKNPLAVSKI

| IC50 [1] | solubility at 1 h [2] | solubility at 1 h [3] | CLint scaled at 1 μM [4] | half-life at 1 μM [4] | half-life at 2 μM [5] | recovery at 5 h, 1 μM [6] | fraction unbound at 5 h, 1 μM [6] | SMILES |
| --- | --- | --- | --- | --- | --- | --- | --- | --- |
| 20 nM | 85.7 µM (≈ 22.2 µg/mL) | 82.5 µM (≈ 21.4 µg/mL) | 13.4 mL/min/kg | 2.16 h | 1.72 h | 109% | 0.002 | CC(C)=Cc1ccc(Oc2[nH]nnc2C(=O)O)cc1 [Example I-287, 5-(4-(2-Methylprop-1-en-1-yl)phenoxy)-1H-1,2,3-triazole-4-carboxylic acid] |
| 4 nM | 111 µM (≈ 36.2 µg/mL) | 115 µM (≈ 37.4 µg/mL) | 5.47 mL/min/kg | 5.3 h | 6.68 h | 105% | 0.007 | O=C(O)c1nn[nH]c1Oc1ccc(-c2ccc3c(c2)OCO3)cc1 [Example I-304, 5-(4-(Benzo[d][1,3]dioxol-5-yl)phenoxy)-1H-1,2,3-triazole-4-carboxylic acid] |
| 22 nM | 115 µM (≈ 29.8 µg/mL) | 110 µM (≈ 28.5 µg/mL) | 18.3 mL/min/kg | 1.58 h | 1.7 h | 98.5% | – | O=C(O)c1nn[nH]c1Oc1ccc(C2CCC2)cc1 [Example I-275, 5-(4-Cyclobutylphenoxy)-1H-1,2,3-triazole-4-carboxylic acid] |
| 32 nM | 112 µM (≈ 29.1 µg/mL) | 111 µM (≈ 28.7 µg/mL) | 4.98 mL/min/kg | 5.82 h | 2.61 h | 98.2% | – | O=C(O)c1nn[nH]c1Oc1cccc(C2CCC2)c1 [Example I-279, 5-(3-Cyclobutylphenoxy)-1H-1,2,3-triazole-4-carboxylic acid] |

More lines, now with the values behind:

| SMILES | IC50 [1] | solubility at 1 h [2] | solubility at 1 h [3] | CLint scaled at 1 μM [4] | half-life at 1 μM [4] | half-life at 2 μM [5] | recovery at 5 h, 1 μM [6] | fraction unbound at 5 h, 1 μM [6] |
| --- | --- | --- | --- | --- | --- | --- | --- | --- |
| COc1ccc(-c2ccc(Oc3[nH]nnc3C(=O)O)cc2)cc1OC [Example I-270, 5-((3′,4′-Dimethoxy-[1,1′-biphenyl]-4-yl)oxy)-1H-1,2,3-triazole-4-carboxylic acid] | 13 nM | < 0.2 µM | 109 µM (≈ 37.2 µg/mL) | 2.72 mL/min/kg | 10.6 h | 5.2 h | 101% | 0.008 |
| O=C(O)c1nn[nH]c1Sc1ccc2ccccc2c1 [Example I-031, 5-(Naphthalen-2-ylthio)-1H-1,2,3-triazole-4-carboxylic acid] | 69 nM | 121 µM (≈ 32.8 µg/mL) | 110 µM (≈ 29.8 µg/mL) | 2.21 mL/min/kg | 13.1 h | 1.25 h | 117% | – |
| CS(=O)(=O)c1ccc(-c2ccc(Oc3[nH]nnc3C(=O)O)cc2)cc1 [Example I-167, 5-((4′-(methylsulfonyl)-[1,1′-biphenyl]-4-yl)oxy)-1H-1,2,3-triazole-4-carboxylic acid] | 8 nM | 116 µM (≈ 41.9 µg/mL) | 112 µM (≈ 40.4 µg/mL) | 1.7 mL/min/kg | 17 h | 6.19 h | 95.5% | – |
| O=C(O)c1nn[nH]c1Sc1ccc(-c2ccccc2)cc1 [Example I-128, 5-([1,1′-Biphenyl]-4-ylthio)-1H-1,2,3-triazole-4-carboxylic acid] | 227 nM | 122 µM (≈ 36.4 µg/mL) | 106 µM (≈ 31.5 µg/mL) | 10.1 mL/min/kg | 2.87 h | 0.755 h | 126% | – |
| O=C(O)c1nn[nH]c1Oc1ccc(Cl)cc1 [Example I-033, 5-(4-Chlorophenoxy)-1H-1,2,3-triazole-4-carboxylic acid] | 67 nM | 121 µM (≈ 29 µg/mL) | 108 µM (≈ 25.8 µg/mL) | < 0.15 mL/min/kg | > 83.3 h | 1.26 h | 123% | – |
| O=C(O)c1nn[nH]c1Oc1cccc(C2CCCCC2)c1 [Example I-268, 5-(3-Cyclohexylphenoxy)-1H-1,2,3-triazole-4-carboxylic acid] | 51 nM | 97.6 µM (≈ 28 µg/mL) | 111 µM (≈ 31.9 µg/mL) | 84.2 mL/min/kg | 0.344 h | 1.84 h | 106% | – |
